According to patent US6197753A, “Pyranoside derivatives” (Boehringer Ingelheim KG, priority 1999, dated 2001):

Molecular target: LTB4 -receptor (Homo sapiens, UniProt Q15722)
Test: receptor binding test
Procedure: The compounds according to the invention are potent LTB4 -antagonists.In particular the compound of Example 1 is obtained in vivo as a metabolite of an LTB4 -antagonistic compound and in the receptor binding test it has a Ki -value of 1.0 nM.
The activity ratios may be investigated pharmacologically and biochemically using tests such as those described in WO 93/16036, pp. 15 to 17 --the contents of which are referred to herein.

LTB4 -receptor, sequence (Q15722 whole entry): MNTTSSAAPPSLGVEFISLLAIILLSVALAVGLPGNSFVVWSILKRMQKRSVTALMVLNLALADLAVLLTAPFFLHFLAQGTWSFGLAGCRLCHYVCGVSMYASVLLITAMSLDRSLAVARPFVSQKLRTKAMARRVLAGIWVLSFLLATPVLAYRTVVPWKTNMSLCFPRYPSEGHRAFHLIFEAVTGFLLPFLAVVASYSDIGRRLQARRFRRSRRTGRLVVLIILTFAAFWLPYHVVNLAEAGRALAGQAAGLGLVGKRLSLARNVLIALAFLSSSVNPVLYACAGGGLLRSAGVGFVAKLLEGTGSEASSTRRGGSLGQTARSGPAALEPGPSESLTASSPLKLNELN

Ki: 1 nM
Structure (SMILES): CC(C)(c1ccc(OCc2cccc(COc3ccc(C(=N)N)cc3)c2)cc1)c1ccc(O[C@@H]2O[C@H](C(=O)O)[C@@H](O)[C@H](O)[C@H]2O)cc1 [Example 1, 4-[[3-[[4-[1-(4-hydroxyphenyl)-1-methylethyl]phenoxy]methyl]phenyl]methoxy]-benzenecarboximidamide-O-gluctironide]
